Molecules are shown by their SMILES. Some results are limits rather than exact numbers.

T1 sequence (O95180 whole entry): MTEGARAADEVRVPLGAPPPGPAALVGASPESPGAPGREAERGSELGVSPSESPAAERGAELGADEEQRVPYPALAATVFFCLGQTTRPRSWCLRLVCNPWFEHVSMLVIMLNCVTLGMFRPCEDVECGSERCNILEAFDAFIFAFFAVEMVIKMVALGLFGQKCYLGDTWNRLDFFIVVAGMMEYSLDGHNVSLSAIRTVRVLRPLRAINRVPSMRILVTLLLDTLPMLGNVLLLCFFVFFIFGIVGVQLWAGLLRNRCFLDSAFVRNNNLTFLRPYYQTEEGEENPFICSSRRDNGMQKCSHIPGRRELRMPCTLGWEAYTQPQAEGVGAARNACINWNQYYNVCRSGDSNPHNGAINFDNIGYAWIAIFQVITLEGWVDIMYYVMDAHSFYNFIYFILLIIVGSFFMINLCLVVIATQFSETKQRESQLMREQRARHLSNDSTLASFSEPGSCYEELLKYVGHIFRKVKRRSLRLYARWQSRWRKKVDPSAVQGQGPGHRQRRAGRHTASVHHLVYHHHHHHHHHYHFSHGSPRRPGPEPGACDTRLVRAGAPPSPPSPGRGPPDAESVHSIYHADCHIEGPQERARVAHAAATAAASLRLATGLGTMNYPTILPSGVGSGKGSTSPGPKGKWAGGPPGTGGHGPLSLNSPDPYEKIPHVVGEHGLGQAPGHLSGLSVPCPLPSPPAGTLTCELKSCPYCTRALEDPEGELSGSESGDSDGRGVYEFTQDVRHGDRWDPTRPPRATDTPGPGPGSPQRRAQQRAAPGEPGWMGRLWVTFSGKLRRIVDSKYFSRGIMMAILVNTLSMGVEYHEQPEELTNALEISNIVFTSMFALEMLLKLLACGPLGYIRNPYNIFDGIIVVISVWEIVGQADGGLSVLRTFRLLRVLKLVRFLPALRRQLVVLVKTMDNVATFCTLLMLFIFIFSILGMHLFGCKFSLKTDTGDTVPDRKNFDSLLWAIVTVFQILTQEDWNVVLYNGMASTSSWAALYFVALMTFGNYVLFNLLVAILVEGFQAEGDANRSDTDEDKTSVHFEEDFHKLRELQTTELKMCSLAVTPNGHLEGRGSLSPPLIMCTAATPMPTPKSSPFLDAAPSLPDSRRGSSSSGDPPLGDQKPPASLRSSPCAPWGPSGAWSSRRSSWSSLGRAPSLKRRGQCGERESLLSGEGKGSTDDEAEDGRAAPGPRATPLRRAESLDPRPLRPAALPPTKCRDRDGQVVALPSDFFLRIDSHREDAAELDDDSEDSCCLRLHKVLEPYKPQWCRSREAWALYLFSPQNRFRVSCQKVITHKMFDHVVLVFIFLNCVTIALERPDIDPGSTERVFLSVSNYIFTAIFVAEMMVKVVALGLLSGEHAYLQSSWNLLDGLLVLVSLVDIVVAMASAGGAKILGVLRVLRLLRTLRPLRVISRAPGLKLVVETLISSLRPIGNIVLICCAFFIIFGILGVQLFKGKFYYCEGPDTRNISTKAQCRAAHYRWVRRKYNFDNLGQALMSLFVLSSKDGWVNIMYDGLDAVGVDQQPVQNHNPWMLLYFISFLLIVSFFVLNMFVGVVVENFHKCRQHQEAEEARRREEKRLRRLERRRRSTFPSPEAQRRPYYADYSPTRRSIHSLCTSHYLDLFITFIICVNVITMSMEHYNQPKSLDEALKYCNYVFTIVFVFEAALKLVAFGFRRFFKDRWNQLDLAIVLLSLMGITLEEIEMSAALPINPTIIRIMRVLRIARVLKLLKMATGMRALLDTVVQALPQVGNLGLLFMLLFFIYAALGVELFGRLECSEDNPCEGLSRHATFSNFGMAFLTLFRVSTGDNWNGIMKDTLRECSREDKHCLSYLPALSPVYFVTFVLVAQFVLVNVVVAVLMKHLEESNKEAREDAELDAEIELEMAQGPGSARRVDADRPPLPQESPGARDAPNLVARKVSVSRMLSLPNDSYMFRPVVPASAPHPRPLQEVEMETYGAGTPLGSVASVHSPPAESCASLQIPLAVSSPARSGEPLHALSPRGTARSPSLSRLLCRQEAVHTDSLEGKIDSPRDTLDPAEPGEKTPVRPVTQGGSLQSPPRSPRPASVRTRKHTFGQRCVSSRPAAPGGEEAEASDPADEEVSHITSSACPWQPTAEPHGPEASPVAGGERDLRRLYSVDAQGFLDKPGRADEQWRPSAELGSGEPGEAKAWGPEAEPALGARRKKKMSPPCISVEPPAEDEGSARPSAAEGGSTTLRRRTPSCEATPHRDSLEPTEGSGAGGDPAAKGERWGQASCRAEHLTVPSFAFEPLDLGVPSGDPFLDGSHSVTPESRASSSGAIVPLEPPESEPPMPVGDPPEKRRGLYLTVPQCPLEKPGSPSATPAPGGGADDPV

This assay addresses T1, Human Cav3.2 Channels (Homo sapiens, UniProt O95180).
T1 construct: expressed in transfected cells
The assay can be described thus: Electrophysiologic (whole-cell patch-clamp) assessment of calcium channel activity in HEK293 cells stably expressing hCav3.2. In kind it is cell-based. Conditions: −77 mV, geometric mean, read-out: Human Cav3.2 −77 mV IC50 (μM) GeoMean. The method, then: (i) In Vitro Methods—Electrophysiologic Assessment of Calcium Channel Activity:
Patch-clamp recordings were performed using HEK293 cells stably expressing hCav3.2. Cells were plated in T175 flasks and grown at 37° C. and under 5% CO2 to approximately 50% confluency. On the day of the experiment, cells were harvested with Detachin™ cell detachment solution (Genlantis, San Diego, Calif.) and maintained in serum-free culture medium supplemented with 25 mM HEPES up to several hours prior to experiment. Whole-cell patch-clamp recordings were obtained using extracellular saline consisting of (mM): 87.5 CsCl, 40 TEA-Cl, 5 CaCl2, 1 MgCl2, 10 HEPES, 10 glucose. The pH was adjusted to 7.2 with CsOH and the osmolarity was adjusted to approximately 310 mOsm with sucrose. Intracellular solution consisted of (mM): 112 CsCl, 27 CsF, 2 NaCl, 8.2 EGTA, 10 HEPES. Prior to an experiment 4 mM Mg2ATP was added and the pH was adjusted to 7.2 with CsOH with an osmolarity of approximately 290 mOsm. A two-pulse voltage protocol was utilized to assess compound inhibition. First, cells were held with an 8 s pre-pulse at −100 mV prior to a 160 ms test pulse to −30 mV. This was followed by an 8 s pre-pulse at approximately −75 mV prior to a […]. Increasing concentrations of antagonist were applied to individual cells in a multi-addition format with 5 minutes in each test concentration. For each cell, responses were normalized to dimethyl sulfoxide vehicle control to generate concentration-response curves.
A general note: In patch-clamp work, channel activity is measured electrically.
Take `O=C(c1cccc(S(=O)(=O)NCCC(c2ccccc2)c2ccccc2)c1)N1CCN2CCC[C@H]2C1` [Example 30, N-(3,3-diphenylpropyl)-3-[(8aS)-hexahydropyrrolo[1,2-a]pyrazin-2(1H)-ylcarbonyl]benzenesulfonamide]: the IC50 worked out at 1.8 µM.
In the case of `O=C(c1cccc(S(=O)(=O)NCC(c2ccccc2)c2ccccc2)c1)N1CCN2CCC[C@H]2C1` [Example 31, N-(2,2-diphenylethyl)-3-[(8aS)-hexahydropyrrolo[1,2-a]pyrazin-2(1H)-ylcarbonyl]benzenesulfonamide] it was 3.3 µM; in that of `O=C(c1cc(S(=O)(=O)Nc2ccc(C(F)(F)F)cc2)ccc1Cl)N1CCN2CCC[C@@H]2C1` [Example 32, 4-chloro-3-[(8aR)-hexahydropyrrolo[1,2-a]pyrazin-2(1H)-ylcarbonyl]-N-[4-(trifluoromethyl)phenyl]benzenesulfonamide], 8.4 µM; in that of `O=C(c1cccc(S(=O)(=O)NCCc2ccc(F)cc2)c1)N1CCN2CCC[C@H]2C1` [Example 33, N-[2-(4-fluorophenyl)ethyl]-3-[(8aS)-hexahydropyrrolo[1,2-a]pyrazin-2(1H)-ylcarbonyl]benzenesulfonamide], 5.7 µM.
In the case of `O=C(c1ccc(Cl)c(S(=O)(=O)Nc2ccc(C(F)(F)F)cc2)c1)N1CCN2CCC[C@@H]2C1` [Example 34, 2-chloro-5-[(8aR)-hexahydropyrrolo[1,2-a]pyrazin-2(1H)-ylcarbonyl]-N-[4-(trifluoromethyl)phenyl]benzenesulfonamide] it was 6.2 µM; in that of `O=C(c1cccc(S(=O)(=O)N2CCN(c3ccc(F)cc3)CC2)c1)N1CCN2CCC[C@H]2C1` [Example 35, (8aS)-2-(3-{[4-(4-fluorophenyl)piperazin-1-yl]sulfonyl}benzoyl)octahydropyrrolo[1,2-a]pyrazine], 4.8 µM.
Then `O=C(c1cccc(S(=O)(=O)Nc2ccccc2-c2ccccc2)c1)N1CCN2CCC[C@H]2C1` [Example 36, N-1,1′-biphenyl-2-yl-3-[(8aS)-hexahydropyrrolo[1,2-a]pyrazin-2(1H)-ylcarbonyl]benzenesulfonamide], with 4.7 µM; and `O=C(c1cccc(S(=O)(=O)Nc2cccc(C(F)(F)F)c2)c1)N1CCN2CCCCC2C1` (stereo not shown) [Example 38, 3-(octahydro-2H-pyrido[1,2-a]pyrazin-2-ylcarbonyl)-N-[3-(trifluoromethyl)phenyl]benzenesulfonamide], with 4.6 µM; and `O=C(c1cccc(S(=O)(=O)Nc2ccccc2F)c1)N1CCN2CCCCC2C1` (stereo not shown) [Example 39, N-(2-fluorophenyl)-3-(octahydro-2H-pyrido[1,2-a]pyrazin-2-ylcarbonyl)benzenesulfonamide], with 4.1 µM.
Take `O=C(c1cccc(S(=O)(=O)Nc2ccc(F)cc2)c1)N1CCC(N2CCCC2)CC1` [Example 40, N-(4-fluorophenyl)-3-[(4-pyrrolidin-1-ylpiperidin-1-yl)carbonyl]benzenesulfonamide]: the IC50 was 4.1 µM.
As to `O=C(c1cccc(S(=O)(=O)Nc2ccccc2)c1)N1CCC(N2CCCC2)CC1` [Example 41, N-phenyl-3-[(4-pyrrolidin-1-ylpiperidin-1-yl)carbonyl]benzenesulfonamide], the IC50 worked out at 5 µM.
For the molecule `O=C(c1cccc(S(=O)(=O)Nc2ccc(C(F)(F)F)cc2)c1)N1CCC(N2CCCC2)CC1` [Example 42, 3-[(4-pyrrolidin-1-ylpiperidin-1-yl)carbonyl]-N-[4-(trifluoromethyl)phenyl]benzenesulfonamide], the IC50 was determined as 5.8 µM.
In the case of `O=C(c1cccc(S(=O)(=O)Nc2cccc(C(F)(F)F)c2)c1)N1CCC(N2CCCC2)CC1` [Example 43, 3-[(4-pyrrolidin-1-ylpiperidin-1-yl)carbonyl]-N-[3-(trifluoromethyl)phenyl]benzenesulfonamide] it was 4.9 µM.
On to `O=C(c1cccc(S(=O)(=O)Nc2cccc(F)c2)c1)N1CCC(N2CCCC2)CC1` [Example 44, N-(3-fluorophenyl)-3-[(4-pyrrolidin-1-ylpiperidin-1-yl)carbonyl]benzenesulfonamide], for which the half-inhibitory concentration (IC50) is 4.9 µM.
Then `O=C(c1cccc(S(=O)(=O)Nc2ccccc2F)c1)N1CCC(N2CCCC2)CC1` [Example 45, N-(2-fluorophenyl)-3-[(4-pyrrolidin-1-ylpiperidin-1-yl)carbonyl]benzenesulfonamide], with over 10 µM.
Then `O=C(c1cccc(S(=O)(=O)Nc2ccc(F)cc2)c1)N1CCC(N2CCCCC2)CC1` [Example 46, 3-(1,4′-bipiperidin-1′-ylcarbonyl)-N-(4-fluorophenyl)benzenesulfonamide], with 1.8 µM; and `O=C(c1cccc(S(=O)(=O)Nc2ccccc2F)c1)N1CCC(N2CCCCC2)CC1` [Example 47, 3-(1,4′-bipiperidin-1′-ylcarbonyl)-N-(2-fluorophenyl)benzenesulfonamide], with 3.8 µM; and `O=C(c1cccc(S(=O)(=O)Nc2cccc(F)c2)c1)N1CCC(N2CCCCC2)CC1` [Example 48, 3-(1,4′-bipiperidin-1′-ylcarbonyl)-N-(3-fluorophenyl)benzenesulfonamide], with over 10 µM.
`O=C(c1cccc(S(=O)(=O)Nc2ccc(C(F)(F)F)cc2)c1)N1CCC(N2CCCCC2)CC1` [Example 49, 3-(1,4′-bipiperidin-1′-ylcarbonyl)-N-[4-(trifluoromethyl)phenyl]benzenesulfonamide]: the IC50 worked out at 1.3 µM.
With `O=C(c1cccc(S(=O)(=O)N2CCN3CCC[C@@H]3C2)c1)N1CCN(C(c2ccc(F)cc2)c2ccc(F)cc2)CC1` [Example 50, (8aR)-2-{[3-({4-[bis(4-fluorophenyl)methyl]piperazin-1-yl}carbonyl)phenyl]sulfonyl}octahydropyrrolo[1,2-a]pyrazine], the IC50 came to 0.6 µM.
As to `O=C(c1cccc(S(=O)(=O)N2CCN3CCC[C@H]3C2)c1)N1CCN(C(c2ccc(F)cc2)c2ccc(F)cc2)CC1` [Example 51, (8aS)-2-{[3-({4-[bis(4-fluorophenyl)methyl]piperazin-1-yl}carbonyl)phenyl]sulfonyl}octahydropyrrolo[1,2-a]pyrazine], the IC50 is 0.9 µM.
In the case of `O=C(c1cccc(S(=O)(=O)N2CCN3CCC[C@@H]3C2)c1)N1CCN(C(c2ccccc2)c2ccccc2)CC1` [Example 52, (8aR)-2-({3-[(4-benzhydrylpiperazin-1-yl)carbonyl]phenyl}sulfonyl)octahydropyrrolo[1,2-a]pyrazine] it was 0.6 µM.
In the case of `O=C(NCC(c1ccccc1)c1ccccc1)c1cccc(S(=O)(=O)N2CCN3CCC[C@H]3C2)c1` [Example 53, N-(2,2-diphenylethyl)-3-[(8aS)-hexahydropyrrolo[1,2-a]pyrazin-2(1H)-ylsulfonyl]benzamide] it was 0.5 µM; in that of `O=C(c1cccc(S(=O)(=O)N2CCN3CCC[C@H]3C2)c1)N1CCN(C(c2ccccc2)c2ccccc2)CC1` [Example 54, (8aS)-2-({3-[(4-benzhydrylpiperazin-1-yl)carbonyl]phenyl}sulfonyl)octahydropyrrolo[1,2-a]pyrazine], 1.2 µM; in that of `O=C(NCCC(c1ccccc1)c1ccccc1)c1cccc(S(=O)(=O)N2CCN3CCC[C@H]3C2)c1` [Example 55, N-(3,3-diphenylpropyl)-3-[(8aS)-hexahydropyrrolo[1,2-a]pyrazin-2(1H)-ylsulfonyl]benzamide], 1.8 µM.
In the case of `O=C(NCCc1ccc(F)cc1)c1cccc(S(=O)(=O)N2CCN3CCC[C@H]3C2)c1` [Example 56, N-[2-(4-fluorophenyl)ethyl]-3-[(8aS)-hexahydropyrrolo[1,2-a]pyrazin-2(1H)-ylsulfonyl]benzamide], the IC50 is 4.1 µM.
In the case of `O=C(c1cc(S(=O)(=O)Nc2ccccc2F)c(F)cc1Cl)N1CCN2CCC[C@H]2C1` [Example 58, 4-chloro-2-fluoro-N-(2-fluorophenyl)-5-[(8aS)-hexahydropyrrolo[1,2-a]pyrazin-2(1H)-ylcarbonyl]benzenesulfonamide] it was 4.6 µM.
Then `O=C(c1cc(S(=O)(=O)NCCC(c2ccccc2)c2ccccc2)c(F)cc1Cl)N1CCN2CCC[C@H]2C1` [Example 59, 4-chloro-N-(3,3-diphenylpropyl)-2-fluoro-5-[(8aS)-hexahydropyrrolo[1,2-a]pyrazin-2(1H)-ylcarbonyl]benzenesulfonamide], with 9 µM.
`O=C(N[C@@H]1C[C@H]1c1ccccc1)c1cccc(S(=O)(=O)N2CCN3CCC[C@H]3C2)c1` [Example 60, 3-[(8aS)-hexahydropyrrolo[1,2-a]pyrazin-2(1H)-ylsulfonyl]-N-[(1R,2S)-2-phenylcyclopropyl]benzamide]: the IC50 turned out to be 5 µM.
Then `O=C(c1cccc(S(=O)(=O)N[C@@H]2C[C@H]2c2ccccc2)c1)N1CCN2CCC[C@H]2C1` [Example 61, 3-[(8aS)-hexahydropyrrolo[1,2-a]pyrazin-2(1H)-ylcarbonyl]-N-[(1R,2S)-2-phenylcyclopropyl]benzenesulfonamide], with over 10 µM.
Take `O=C(c1ccc(S(=O)(=O)N[C@H](CO)c2ccccc2)cc1)N1CCN2CCC[C@@H]2C1` [Example 62, 4-[(8aR)-hexahydropyrrolo[1,2-a]pyrazin-2(1H)-ylcarbonyl]-N-[(1S)-2-hydroxy-1-phenylethyl]benzenesulfonamide]: the IC50 is over 10 µM.

By IC50 is commonly meant the point on the concentration scale where inhibition reaches its midpoint.
